How the values were obtained:
β-amyloid (1-42) = target: T1, β-amyloid (1-42) (Homo sapiens, UniProt P05067); assay: Inhibition of β-amyloid (1-42) aggregation (thioflavin T fluorescence); type: biochemical; settings: 5 μM β-amyloid 1-42, 37° C., 26 hours
T1 construct: β-amyloid (1-42) was a product of American Peptide Co., U.S.A; purchased American Peptide Co., U.S.A
Description: Experiment for Measuring Inhibition of β-amyloid Aggregation
As the materials used for measuring β-amyloid aggregation, β-amyloid (1-42) was a product of American Peptide Co., U.S.A.; and thioflavin T, phosphate buffered saline tablets, and dimethyl sulfoxide (DMSO, 99.5%) were products of Sigma Chemical Co., U.S.A., and high purity reagents were selected for other reagents.
3. Experiment for Measuring Inhibition of β-amyloid (1-42) Aggregation
Fluorescent analysis was used in measuring β-amyloid aggregation. This peptide compound was kept in the deep freezer (−80° C.), and the final concentration used in the mesurement was 5 μM. Compounds that need to be analyzed were dissolved in 99.5% DMSO, and fluorescent substance was prepared by dissolving thioflavin T (5 μM) in 0.01 M sodium phosphate buffer.
The procedure for aggregation reaction was as follows. To 0.01 M sodium phosphate buffer (92.5 μl) was added fixed concentration of a compound, for measuring purpose, (5 μl) and 5 μM β-amyloid 1-42 (2.5 μl). The resulting mixture was kept at 37° C. for 26 hours to aggregate. 5 μM tioflavin T (2000 μl) was added thereto, and then fluorescent strength was measured with fluorescent spectrometer.

[1] = target: T2, acetylcholinesterase (Type V-S: from electric eel) (Electrophorus electricus, UniProt O42275); assay: Measurement of acetylcholinesterase activity (modified Ellman's method); type: biochemical; settings: 0.03 U enzyme, 37° C., 412 nm; read-out: AChE Inhibition (IC50)
T2 construct: purchased Sigma Chemical Co., U.S.A. Type V-S
T2 sequence (O42275 24-633): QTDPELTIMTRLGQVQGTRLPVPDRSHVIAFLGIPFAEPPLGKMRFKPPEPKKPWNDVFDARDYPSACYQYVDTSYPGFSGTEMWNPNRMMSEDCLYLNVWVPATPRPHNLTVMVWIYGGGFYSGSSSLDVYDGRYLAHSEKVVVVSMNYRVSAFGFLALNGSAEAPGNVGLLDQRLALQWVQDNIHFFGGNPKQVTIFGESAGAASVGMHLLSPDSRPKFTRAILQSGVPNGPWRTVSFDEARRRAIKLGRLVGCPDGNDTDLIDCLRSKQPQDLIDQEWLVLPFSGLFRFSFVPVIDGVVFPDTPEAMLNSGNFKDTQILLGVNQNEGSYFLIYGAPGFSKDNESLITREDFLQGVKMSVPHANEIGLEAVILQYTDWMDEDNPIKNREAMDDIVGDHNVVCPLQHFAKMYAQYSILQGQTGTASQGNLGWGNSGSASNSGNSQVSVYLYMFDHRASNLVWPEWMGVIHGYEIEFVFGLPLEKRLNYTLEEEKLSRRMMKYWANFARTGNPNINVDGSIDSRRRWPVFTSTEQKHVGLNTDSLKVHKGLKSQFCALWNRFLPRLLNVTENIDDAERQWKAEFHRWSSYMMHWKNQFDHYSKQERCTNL
Description: Experiment for Measuring Acetylcholinesterase Inhibition Effect
The compounds used for measuring acetylcholinesterase (AChE) activity such as acetylcholinesterase (Type V-S: from electric eel), acetylcholine iodide, 5,5-dithio-bis(2-nitro benzoic acid), and neostigmine bromide, were products of Sigma Chemical Co., U.S.A., and high purity reagents were selected for other reagents.
3. Measurement of Acetylcholinesterase Activity
Modified Ellman's method for measuring enzyme activity was used to meet with the measurement of acetylcholinesterase activity. The enzyme was separated into certain amount, and kept under 80° C. below zero. The final concentration of the enzyme used in the experiment was 0.03 unit concentration. 1000 μM of […] dissolved in 0.1 M sodium phosphate buffer (pH 8.0) was used for substrate. As for dye reagent, 5,5-dithio-bis-(2-nitrobenzoic acid) (39.6 mg) and sodium bicarbonate(15 mg) dissolved in 10 mL sodium phosphate buffer (0.1M, pH 7.0) was used.
The procedure for the enzyme reaction was as follows. After adding 200 μl DTNB and 100 μl enzyme (0.03 U) to 2 mL sodium phosphate buffer (pH 8.0), the resulting mixture was pre-heated at 37° C. for 10 minutes. To the resulting mixture 200 μl substrate was added, and allowed to react for 3 minutes. The spectrometer of finished reaction was measured at 412 nm wave. IC50 value connected to activity inhibition was measured by quantal-dose response.

ICR mice = assay: Acute toxicity test on animals; type: in vivo; settings: 50 mg/kg to 500 mg/kg intraperitoneal, single injection, observed for 10 days
Description: In order for a compound to be comprised in the pharmaceutical composition for treating Alzheimer's disease, it must be nontoxic. […] This test followed the protocol of Korea Food & Drug Administration. […] The compounds used for the test were diluted with wheat germ oil.

[2] = system: patients with Alzheimer's disease; settings: cited from earlier work

T1 sequence (P05067 672-713 limits assumed): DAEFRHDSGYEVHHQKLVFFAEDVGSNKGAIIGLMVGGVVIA

Row | SMILES | IC50 (β-amyloid (1-42)) | IC50 [1] | death rate (ICR mice) | share of patients with Alzheimer's disease in whom efficacious [2]
1 | O=C(OCCCCN1CCC(OC(c2ccccc2)c2ccccc2)CC1)c1ccc([N+](=O)[O-])cc1 [Example 1, 4-[4-(benzhydryloxy)piperidino]butyl-4-nitrobenzoate] | 53.1 µM | 7.2 µM |  | 
2 | O=C(OCCCCN1CCC(OC(c2ccccc2)c2ccccc2)CC1)c1ccc(Cl)cc1 [Example 2, 4-[4-(benzhydryloxy)piperidino]butyl-4-chlorobenzoate] | 28.2 µM | 0.3 µM | no death | 
3 | O=C(OCCCCN1CCC(OC(c2ccccc2)c2ccccc2)CC1)c1ccc(F)cc1 [Example 3, 4-[4-(benzhydryloxy)piperidino]butyl 4-fluorobenzoate] | 36.3 µM | 0.84 µM |  | 
4 | O=C(OCCCCN1CCC(OC(c2ccccc2)c2ccccc2)CC1)c1ccccc1 [Example 4, 4-[4-(benzhydryloxy)piperidino]butyl benzoate] | 40.3 µM | 1.3 µM |  | 
5 | CC(C)(C)c1ccc(C(=O)OCCCCN2CCC(OC(c3ccccc3)c3ccccc3)CC2)cc1 [Example 6, 4-[4-(benzhydryloxy)piperidino]butyl 4-(tert-butyl)benzoate] |  |  | no death | 
6 | O=C(OCCCCN1CCC(OC(c2ccccc2)c2ccccc2)CC1)c1cccc(F)c1 [Example 8, 4-[4-(benzhydryloxy)piperidino]butyl 3-fluorobenzoate] | 33.7 µM | 70.7 µM |  | 
7 | O=C(Nc1ccc(F)cc1)OCCCCN1CCC(OC(c2ccccc2)c2ccccc2)CC1 [Example 10, 4-[4-(benzhydryloxy)piperidino]butyl N-(4-fluorophenyl)carbamate] | 114 µM | 2.45 µM |  | 
8 | O=C(OCCCCN1CCC(OC(c2ccccc2)c2ccccc2)CC1)c1cccnc1 [Example 11, 4-[4-(benzhydryloxy)piperidino]butyl nitcotinate] | 61.2 µM | > 150 µM |  | 
9 | O=C(OCCCCN1CCC(OCc2ccccc2)CC1)c1ccc([N+](=O)[O-])cc1 [Example 12, 4-[4-(benzyloxy)piperidino]butyl 4-nitrobenzoate] |  | > 100 µM |  | 
10 | O=C(OCCCCN1CCC(OCc2ccccc2)CC1)c1ccc(Cl)cc1 [Example 13, 4-[4-(benzyloxy)piperidino]butyl 4-chlorobenzoate] |  | > 100 µM |  | 
11 | O=C(OCCCCN1CCC(OCc2ccccc2)CC1)c1ccc(F)cc1 [Example 14, 4-[4-(benzyloxy)piperidino]butyl 4-fluorobenzoate] |  | > 100 µM |  | 
12 | O=C(OCCCCN1CCC(OCc2ccccc2)CC1)c1ccccc1 [Example 15, 4-[4-(benzyloxy)piperidino]butyl benzoate] |  | > 100 µM |  | 
13 | CC(C)c1ccc(C(=O)OCCCCN2CCC(OCc3ccccc3)CC2)cc1 [Example 16, 4-[4-(benzyloxy)piperidino]butyl 4-isopropylbenzoate] |  | 14.8 µM |  | 
14 | CC(C)(C)c1ccc(C(=O)OCCCCN2CCC(OCc3ccccc3)CC2)cc1 [Example 17, 4-[4-(benzyloxy)piperidino]butyl 4-(tert-butyl)benzoate] |  | 12.2 µM |  | 
15 | O=C(OCCCCN1CCC(OCc2ccccc2)CC1)c1cccc(Cl)c1 [Example 18, 4-[4-(benzyloxy)piperidino]butyl 3-chlorobenzoate] |  | > 100 µM |  | 
16 | O=C(OCCCCN1CCC(OCc2ccccc2)CC1)c1cccc(F)c1 [Example 19, 4-[4-(benzyloxy)piperidino]butyl 3-fluorobenzoate] |  | > 100 µM |  | 
17 | Nc1c2c(nc3ccccc13)CCCC2 [Tarcrine] |  |  |  | about 25%

From patent US7288552B2, “Piperidine derivatives, process for preparation thereof, and pharmaceutical composition for alzheimer's disease containing the same” (STC NARA Co., Ltd., priority 2001, dated 2007)
